The subject of one data set is Oryctolagus cuniculus. Description: Inhibition of DPP4 activity in rabbit plasma at 1 to 10 mg, iv. It counts as functional.
The target in data set [1] is T1, Angiotensin-converting enzyme (Homo sapiens, UniProt P12821). The experiment in a line: Inhibition of human ACE C-terminal domain expressed in CHO cells after 90 mins by fluorescence assay. It counts as cell-based.
For data set [2], the target named is T1, Angiotensin-converting enzyme. The experiment in a line: Inhibition of human ACE N-terminal domain expressed in CHO cells after 90 mins by fluorescence assay. It counts as cell-based.
The nature of data set [3]: Inhibition of bacterial APN. More on the design: species or system Bacteria.
Another data set concerns the target Cytosol aminopeptidase (Homo sapiens, UniProt P28838). The experiment in a line: Inhibition of LAP.
Another data set has as its target Collagenase 3 (Homo sapiens, UniProt P45452). The experiment in a line: Inhibition of MMP-13.
The target of data set [4] is Matrix metalloproteinase-14 (Homo sapiens, UniProt P50281). Description: Inhibition of MMP-14.
A short description of data set [5]: Half life in pH 7.8 buffer. It counts as physicochemical.
Data set [6] concerns Rattus norvegicus. Description: Suppression of acute pulmonary transplant rejection in rat at 100 mg/kg. It counts as functional.
Data set [7] has as its system Rattus norvegicus. The experiment in a line: Suppression of acute pulmonary transplant rejection in rat at 100 mg/kg at 100 mg/kg followed by 60 mg/kg/day until day 4 after surgery measured on day 5 post initial dose. It counts as functional.
Data set [8] concerns the target T1, Angiotensin-converting enzyme. Description: Inhibition of ACE.
Data set [9] in a line: Inhibition of Bacillus pasteurii urease. The arrangement: species or system Sporosarcina pasteurii.
The subject of another data set is MDA-MB-231. The experiment in a line: Growth inhibition of human MDA-MB-231 cells. It counts as functional, cell-based.
Data set [10] in a line: Inhibition of ECE.
The target in a further data set is Aminopeptidase N (Homo sapiens, UniProt P15144). The experiment in a line: Inhibition of APN.
Data set [11] is described as follows: Inhibition of urease in intact Proteus mirabilis.
Data set [12] in a line: Half life in human at 200 mg, im. Particulars: in vivo. Type of data set: ADME, organism-based.
Data set [13] is described as follows: Half life in Sprague-Dawley rat at 20 mg/kg, sc administered as single dose. It counts as ADME, organism-based. The arrangement: dose 20 mg/kg, route subcutaneous. The note with it: in vivo.
The test system of data set [14] is Rattus norvegicus. Description: AUC in Sprague-Dawley rat at 20 mg/kg, sc administered as single dose. The note with it: in vivo. More on the design: dose 20 mg/kg, route subcutaneous. It counts as ADME, organism-based, Plasma.
Data set [15] can be described thus: Tmax in Sprague-Dawley rat at 20 mg/kg, sc administered as single dose. More on the design: dose 20 mg/kg, route subcutaneous. Particulars: in vivo. Type of data set: ADME, organism-based.
For data set [16], the species on record is Rattus norvegicus. Description: Inhibition of bone resorption in rat. It counts as functional. The note with it: read-out: MED.
Data set [17] is described as follows: Terminal half life in healthy human at 10 mg dosed as single daily dose. The note with it: in vivo, read-out: beta t1/2 (converted). Type of data set: ADME, organism-based.
The nature of data set [18]: Total body clearance in healthy human at 10 mg dosed as single daily dose. The note with it: in vivo. Type of data set: ADME, organism-based.
A short description of data set [19]: Drug absorption in healthy human at 10 mg dosed as single daily dose. Type of data set: ADME, organism-based. Particulars: in vivo, read-out: Drug absorption.
Data set [20] in a line: Cmax in healthy human at 10 mg dosed as single daily dose. It counts as ADME, organism-based. More on the design: dose 10 mg. The note with it: in vivo.
For data set [21], the system named is Homo sapiens. Description: Reduction in systolic blood pressure in hypertensive patient receiving 10 to 40 mg/day, po dosed as single or multiple dose. Type of data set: functional, Artery. More on the design: scale not given: the % may be the effect or the level left.
A short description of data set [22]: AUC in healthy human at 10 mg dosed as single daily dose. It counts as ADME, organism-based. The note with it: plasma.
Data set [23] in a line: Tmax in healthy human at 10 mg dosed as single daily dose. Type of data set: ADME, organism-based. Particulars: in vivo.
The subject of data set [24] is Homo sapiens. Description: Reduction in diastolic blood pressure in hypertensive patient receiving 10 to 40 mg/day, po dosed as single or multiple dose. More on the design: scale not given: the % may be the effect or the level left. It counts as functional, Artery.
Data set [25] relates to Homo sapiens. The experiment in a line: Reduction in arterial blood pressure in hypertensive patient receiving 10 to 40 mg/day, po dosed as single or multiple dose. It counts as functional. More on the design: scale not given: the % may be the effect or the level left.
The target of data set [26] is T2, Farnesyl pyrophosphate synthase (Homo sapiens, UniProt P14324).
T2 sequence (P14324 whole entry): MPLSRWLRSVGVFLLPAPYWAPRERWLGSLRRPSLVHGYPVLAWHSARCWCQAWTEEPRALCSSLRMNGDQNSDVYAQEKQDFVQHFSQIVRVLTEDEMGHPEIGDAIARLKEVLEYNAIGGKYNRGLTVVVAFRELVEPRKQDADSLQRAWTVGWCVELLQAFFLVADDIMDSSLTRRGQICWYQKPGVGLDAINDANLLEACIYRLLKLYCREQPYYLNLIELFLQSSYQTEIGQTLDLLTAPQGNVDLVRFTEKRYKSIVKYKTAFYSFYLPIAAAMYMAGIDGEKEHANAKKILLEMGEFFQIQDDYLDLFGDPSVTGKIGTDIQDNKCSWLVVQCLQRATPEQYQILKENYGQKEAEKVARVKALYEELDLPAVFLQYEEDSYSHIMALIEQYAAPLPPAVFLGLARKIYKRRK

Some results are limits rather than exact numbers.

Broadly, the Ki is the dissociation constant of the complex between target and ligand, obtained from inhibition or displacement. For orientation: IC50 means the midpoint of a concentration-inhibition curve. One may read the AUC as concentration integrated over time. In general, Tmax refers to the time from dosing to the highest level. One may read the clearance as a measure of how efficiently the substance is removed, as volume per time. One may read the Cmax as the peak of the concentration-time curve.

T1 sequence (P12821 whole entry, the tested form may be a part): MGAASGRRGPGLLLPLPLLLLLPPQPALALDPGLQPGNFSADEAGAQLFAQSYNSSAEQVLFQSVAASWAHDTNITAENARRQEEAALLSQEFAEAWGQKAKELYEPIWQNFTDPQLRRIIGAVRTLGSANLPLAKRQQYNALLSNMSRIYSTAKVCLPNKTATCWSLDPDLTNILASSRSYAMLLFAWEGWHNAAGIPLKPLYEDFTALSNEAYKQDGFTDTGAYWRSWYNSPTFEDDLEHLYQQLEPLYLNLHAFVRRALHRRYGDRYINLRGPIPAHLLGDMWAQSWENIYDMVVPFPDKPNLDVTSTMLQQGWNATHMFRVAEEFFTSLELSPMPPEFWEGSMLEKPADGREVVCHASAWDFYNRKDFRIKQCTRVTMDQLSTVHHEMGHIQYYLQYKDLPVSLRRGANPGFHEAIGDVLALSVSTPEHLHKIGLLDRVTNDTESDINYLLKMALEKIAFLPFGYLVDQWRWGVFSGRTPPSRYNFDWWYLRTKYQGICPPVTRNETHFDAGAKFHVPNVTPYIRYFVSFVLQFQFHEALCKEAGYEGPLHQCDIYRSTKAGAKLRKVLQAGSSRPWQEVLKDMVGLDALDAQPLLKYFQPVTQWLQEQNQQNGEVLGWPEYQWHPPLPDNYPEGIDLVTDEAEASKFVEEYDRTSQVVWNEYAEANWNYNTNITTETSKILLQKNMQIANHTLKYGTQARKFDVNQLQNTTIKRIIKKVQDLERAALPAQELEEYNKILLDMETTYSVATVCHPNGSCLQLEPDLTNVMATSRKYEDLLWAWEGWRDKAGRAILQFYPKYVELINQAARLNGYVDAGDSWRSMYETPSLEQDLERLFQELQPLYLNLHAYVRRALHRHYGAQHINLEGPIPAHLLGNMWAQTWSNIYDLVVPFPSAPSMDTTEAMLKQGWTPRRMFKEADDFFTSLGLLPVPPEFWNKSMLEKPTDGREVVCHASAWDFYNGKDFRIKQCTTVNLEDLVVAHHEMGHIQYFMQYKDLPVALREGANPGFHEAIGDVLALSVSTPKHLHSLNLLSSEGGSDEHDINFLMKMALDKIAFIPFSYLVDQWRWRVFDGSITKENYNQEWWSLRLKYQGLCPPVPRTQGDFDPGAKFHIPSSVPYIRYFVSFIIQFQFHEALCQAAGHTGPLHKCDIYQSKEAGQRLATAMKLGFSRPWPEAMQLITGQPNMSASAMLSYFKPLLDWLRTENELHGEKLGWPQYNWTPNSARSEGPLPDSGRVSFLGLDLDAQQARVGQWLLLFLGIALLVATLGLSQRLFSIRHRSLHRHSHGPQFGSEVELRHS
Chain of Cytosol aminopeptidase (P28838 whole entry): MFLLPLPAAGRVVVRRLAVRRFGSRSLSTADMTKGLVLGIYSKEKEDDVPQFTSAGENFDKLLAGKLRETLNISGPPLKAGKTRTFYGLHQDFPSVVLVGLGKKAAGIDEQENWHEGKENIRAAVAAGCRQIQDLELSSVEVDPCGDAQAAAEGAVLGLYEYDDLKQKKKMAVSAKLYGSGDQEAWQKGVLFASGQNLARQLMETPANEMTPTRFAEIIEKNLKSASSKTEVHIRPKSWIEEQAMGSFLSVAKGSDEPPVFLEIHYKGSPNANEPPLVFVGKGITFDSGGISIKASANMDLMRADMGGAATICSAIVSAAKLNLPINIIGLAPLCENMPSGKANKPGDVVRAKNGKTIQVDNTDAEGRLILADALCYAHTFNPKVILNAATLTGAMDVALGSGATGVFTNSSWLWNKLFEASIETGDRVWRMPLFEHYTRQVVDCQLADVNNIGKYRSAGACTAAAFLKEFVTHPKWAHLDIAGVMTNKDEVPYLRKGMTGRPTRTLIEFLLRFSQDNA
Chain of Aminopeptidase N (P15144 whole entry): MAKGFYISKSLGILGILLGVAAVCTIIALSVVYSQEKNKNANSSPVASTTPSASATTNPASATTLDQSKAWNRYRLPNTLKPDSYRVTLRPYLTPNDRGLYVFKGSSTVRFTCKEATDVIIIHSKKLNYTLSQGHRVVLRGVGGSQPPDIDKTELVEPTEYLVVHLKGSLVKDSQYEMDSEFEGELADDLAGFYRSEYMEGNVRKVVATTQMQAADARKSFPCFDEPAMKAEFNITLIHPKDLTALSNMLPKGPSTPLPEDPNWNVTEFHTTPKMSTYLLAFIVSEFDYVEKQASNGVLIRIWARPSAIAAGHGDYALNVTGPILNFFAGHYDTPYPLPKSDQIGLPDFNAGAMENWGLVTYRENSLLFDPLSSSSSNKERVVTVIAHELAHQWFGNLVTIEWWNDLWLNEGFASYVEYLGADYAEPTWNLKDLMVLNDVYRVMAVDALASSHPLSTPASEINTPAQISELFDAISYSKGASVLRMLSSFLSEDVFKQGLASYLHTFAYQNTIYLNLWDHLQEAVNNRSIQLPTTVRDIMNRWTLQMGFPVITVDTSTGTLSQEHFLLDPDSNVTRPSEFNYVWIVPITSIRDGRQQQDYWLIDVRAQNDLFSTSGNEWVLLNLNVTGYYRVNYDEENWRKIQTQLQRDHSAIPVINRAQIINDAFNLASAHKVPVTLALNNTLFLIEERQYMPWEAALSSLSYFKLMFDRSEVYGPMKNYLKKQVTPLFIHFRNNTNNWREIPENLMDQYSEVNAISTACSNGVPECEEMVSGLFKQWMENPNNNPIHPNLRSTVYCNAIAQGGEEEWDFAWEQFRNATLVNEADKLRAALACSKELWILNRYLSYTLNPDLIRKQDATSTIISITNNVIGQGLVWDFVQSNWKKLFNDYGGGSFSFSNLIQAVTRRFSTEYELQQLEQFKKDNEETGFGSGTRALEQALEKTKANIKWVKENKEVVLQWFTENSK

As to `O=C([C@@H]1CCCN1)N1CCCC1P(=O)(Oc1ccccc1)Oc1ccccc1` (stereo not given in full), the “inhibition (INH)” value in the data set with Oryctolagus cuniculus was found to be 80%.
As for `CC(=O)N[C@@H](CC(=O)O)C(=O)N[C@@H](Cc1ccccc1)P(=O)(O)C[C@@H](C)C(=O)N[C@@H](C)C(N)=O`, the results for the Ki in data set [1] and in [2] were 7.5 µM and 0.007 µM, respectively.
As for `C[C@H](N)P(=O)(O)C[C@@H](Cc1ccccc1)C(=O)N[C@@H](Cc1ccccc1)C(=O)O`, the Ki in [3] came out at 1.5 nM.
On to `CC(C)CC(N)P(=O)(O)O[C@@H](CC(C)C)C(=O)O` (stereo not given in full), for which affinity on Cytosol aminopeptidase was put at a Ki of 58 µM.
`NC(=O)[C@H](Cc1c[nH]c2ccccc12)NC(=O)[C@@H](CP(=O)(O)[C@H](Cc1ccccc1)NC(=O)OCc1ccccc1)c1cc(-c2cccc(Oc3ccccc3)c2)no1`: the Ki at Collagenase 3 stood at 28 nM; in data set [4], 5.1 µM.
For `O=C(N[C@@H](Cc1ccccc1)P(=O)(O)C1CCC[C@H]1C(=O)N[C@@H](Cc1c[nH]c2ccccc12)C(=O)O)OCc1ccccc1` (stereo not given in full), the Ki in data set [1] was determined as 0.003 µM; in data set [2], 10 µM.
`CC(=O)Nc1ccc(OP(=O)(Oc2ccc(NC(C)=O)cc2)C2CCCN2C(=O)[C@@H]2CCCN2)cc1` (stereo not given in full) displayed a half-life in data set [5] of 320 min. Also, the figures for the Activity with Rattus norvegicus [6] and with Rattus norvegicus [7] were more than 95% and more than 90%, respectively.
As for `CCOC(=O)CNC(=O)c1ccc(OP(=O)(Oc2ccc(C(=O)NCC(=O)OCC)cc2)C2CCCN2C(=O)[C@@H]2CCCN2)cc1` (stereo not given in full), the half-life in data set [5] amounted to 35 min.
On to `O=C(N[C@@H](CCc1ccccc1)CP(=O)(O)CC(=O)N1CCC[C@H]1C(=O)O)c1ccccc1`, for which the IC50 in data set [8] was 12 nM.
As for `C[C@H](N)C(=O)N1CCCC1P(=O)(Oc1ccc(Cl)cc1)Oc1ccc(Cl)cc1` (stereo not given in full), the half-life in data set [5] was more than 2880 min.
Molecule `C[C@H](N)C(=O)N1CCCCC1P(=O)(Oc1ccc(Cl)cc1)Oc1ccc(Cl)cc1` (stereo not given in full) had a half-life in data set [5] of more than 2880 min.
Regarding `CP(O)(=S)CNC(=O)CNC(=O)OCc1ccccc1` (stereo not given), the affinity in data set [9] corresponds to a Ki of 0.17 µM.
Regarding `CCCCCCCCCCOc1ccc[n+](CC(P(=O)([O-])O)P(=O)(O)O)c1` (stereo not given), the concentration for half-maximal inhibition (IC50) with MDA-MB-231 came to 100 nM.
In data set [9], `CP(=O)(O)CNC(=O)CN` had an inhibition constant Ki of 21 µM.
In [10], `O=C(N[C@@H](Cc1ccccc1)P(=O)(O)C[C@H](Cc1cc(-c2ccccc2)no1)C(=O)N[C@@H](Cc1ccc(O)cc1)C(=O)O)OCc1ccccc1` gave a Ki of 14 nM.
Turning to `CC(C)CC(CP(=O)(O)[C@@H](N)CC(C)C)C(=O)O` (mixture of isomers), the Ki came to 0.065 µM at Cytosol aminopeptidase and 1020 nM at Aminopeptidase N.
In data set [9], `CN(C)CP(=O)(O)CO` [(DIMETHYLAMINO)METHYL(HYDROXYMETHYL)PHOSPHINIC ACID] had a Ki of 5 µM.
The same measure, in the same setting: next, `CN(C)CP(C)(=O)O` [(DIMETHYLAMINO)METHYL(METHYL)PHOSPHINIC ACID]: 0.62 µM.
As for `CC(=O)NO` [ACETOHYDROXAMIC ACID], the IC50 in data set [11] is 64.4 µM.
Consider `C[C@H](N)C(=O)N[C@@H](C)P(=O)(O)O` [ALAFOSFALIN], for which the figures for the half-life in data set [12] and in data set [13] were 60 min and 20 min, respectively. Also, the AUC with Rattus norvegicus [14] turned out to be 25 µg·h/mL. Also, the Tmax in [15] was 20 min.
In the case of `NCCCC(O)(P(=O)(O)O)P(=O)(O)O` [ALENDRONIC ACID], the minimal effective dose in the data set listed under Rattus norvegicus [16] stood at 1 µg/kg.
In the case of `NCP(=O)(O)CO` [AMINOMETHYL(HYDROXYMETHYL)PHOSPHINIC ACID], the affinity in data set [9], expressed as Ki, was 95 µM.
Still for that read-out and setting: to `CP(=O)(O)CN` [AMINOMETHYL(METHYL)PHOSPHINIC ACID] belongs 340 µM.
Regarding `O=C(O)[C@@H]1C[C@@H](C2CCCCC2)CN1C(=O)CP(=O)(O)CCCCc1ccccc1` [FOSINOPRILAT], the Ki in data set [8] came out at 1.5 nM. In addition, the half-life in data set [17] was 720 min. The molecule further had a clearance in data set [18] of 25.8 mL/min.
For the molecule `CCC(=O)O[C@@H](O[P@](=O)(CCCCc1ccccc1)CC(=O)N1C[C@H](C2CCCCC2)C[C@H]1C(=O)O)C(C)C` [FOSINOPRIL], the Fa in data set [19] came to 30%. Further, in [20], the Cmax is 100 ng/mL. Besides, the Activity in the data set with Homo sapiens [21], in the data set with Homo sapiens [24] and with Homo sapiens [25] was 10% throughout. The AUC in data set [22] was 1000 ng·h/mL. In addition, the Tmax in data set [23] was determined as 3 h.
For the molecule `CNCP(=O)(O)CO` [HYDROXYMETHYL((METHYLAMINO)METHYL)PHOSPHINIC ACID], the Ki in data set [9] was found to be 0.43 µM.
`O=P(O)(O)C(NC1CCCCCC1)P(=O)(O)O` [INCADRONIC ACID]: in the data set listed under Rattus norvegicus [16], the minimal effective dose is 1 µg/kg. Moreover, half-maximal inhibition in [26] (IC50) was put at 30 nM.
The molecule `CNCP(C)(=O)O` [METHYL((METHYLAMINO)METHYL)PHOSPHINIC ACID] came in with a Ki in [9] of 18 µM. The molecule also yielded an IC50 in [11] of 36 µM.
Regarding `NCCC(O)(P(=O)(O)O)P(=O)(O)O` [PAMIDRONIC ACID], the minimal effective dose in the data set listed under Rattus norvegicus [16] came out at 30 µg/kg.
On the same count and under the same terms, to `O=P(O)(O)C(O)(Cc1cccnc1)P(=O)(O)O` [RISEDRONIC ACID] belongs 0.3 µg/kg.
Still for that read-out and setting: to `O.O=P(O)(O)C(O)(Cn1ccnc1)P(=O)(O)O` [ZOLEDRONIC ACID] belongs 0.1 µg/kg.

These data come from ChEMBL document CHEMBL2150865, “Remarkable potential of the α-aminophosphonate/phosphinate structural motif in medicinal chemistry” (J Med Chem, 2011).
